Data published in patent US9365851B2, “Spalt-like transcription factor 4 (SALL4) and uses thereof” (National University of Singapore, priority 2011, dated 2016).

What was measured:
Type in all cases: cell-based, human
SALL4 = SALL4 RNA knock-down in primary AML cells (qRT-PCR); settings: qRT-PCR normalized to GAPDH
Excerpt: FIG. 6: Down-regulation of SALL4 in primary AML led to cell death. (6A) Down-regulation of SALL4 in primary AML cells. The ability of shRNA constructs 7412 to knock down SALL4 mRNA in AML cells were confirmed by qRT-PCR with normalization to GAPDH. The expression of SALL4 RNA in AML cells that were infected with SALL4 shRNA (7412)-expressing retroviruses was reduced to 35% of those infected with scrambled pRS control vectors, a shRNA pRS against non-effective GFP sequence from OriGene Technologies, Inc., Rockville Md. (N=3, Error Bars: +/−SD). (6B) Increased apoptosis and cell death were observed via flow cytometry in AML cells upon SALL4 knock down by Annexin V/PI staining. Control scrambled shRNA-infected cells and SALL4 shRNA-infected cells were analyzed 24 to 48 h post transduction. Data were derived from four independent experiments. (6C-6F) Leukemia development in xenotransplant recipient mice. AML is defined as blast count more than 20% in peripheral blood and/or bone marrow with multiple organ involvements observed in recipient mice. Blasts were present in liver (6C, ×200), spleen (6D, ×200), and bone marrow (6E, ×200), and were human CD45 positive (6F). […]

HuH-7 = experiment: Cellular uptake of FITC-labeled peptide
Method: (§1) Cells were grown typically in 6 well plates (35 mm dish) to 50-70% confluence. Usually the transfect ion efficiency is somehow cell type specific. 2 mM peptide was diluted 4 times in PBS (2 ul+6 ul) (For FITC peptidedo not dilute the 2 mM stock). For each transfection reaction tube with 100 ul PBS+1 ul diluted peptide was set up. Chariot reagent was diluted 1:10 in ddH2O and for each transfection a 94 ul H2O tube+6 ul diluted Chariot was prepared (No master mix for more than 4 transfections). The 2 tubes were carefully mixed by pipetting up and down and incubated 30 min. at room temperature. Medium was aspirated from the dish (well) and cells were overlay with the mix. 400 ul serum free medium was added and cells were incubated further for 1 h 37 C (cell incubator). 500 ul complete medium (with 10% serum) was finally added. If cells are not very sensitive to serum starvation (cancer cell lines) 5% serum could be used.
(§2) Fluorescent and Confocal microscopy was performed on cells treated with FITC labeled peptides with or without of transfection reagent depending on the cell type. Cells were mounted on cover slips using mounting media with DAPI (Invitrogen) and in some cases cytoskeleton dye (Invitrogen).
(§3) In order to evaluate their cellular uptake and localization, the N terminus of these peptides was labeled with fluorescein isothiocyanate (FITC). Despite the net positive charge of these peptides, their uptake by the cells is cell-type specific. Some cell lines such as HL-60 (an AML cell line) allowed the peptide to enter the cells without any modification or carrier, and some cell lines were not penetrable at all. In order to achieve a similar level of peptide delivery in most cell types, a Chariot Transfection Reagent (Active Motif) was used as a peptide carrier, as directed from the manufacturer. All cell types used in the study described herein were subjected to individual evaluation of the percentage of the cells in which the peptide was delivered as well as the duration of time during which they sustained the labeled peptide in the cells. After Chariot treatment, confocal microscopy studies confirmed uptake of these peptides throughout the cell, including nuclei (as evidenced by DAPI overlay, FIG. 1B).

AML = experiment: Cellular uptake of FITC-labeled peptide
Method: as §1, §2, §3

HL60 = experiment: Cellular uptake of FITC-labeled peptide
Method: as §1, §2, §3

SNU387 = experiment: Cellular uptake of FITC-labeled peptide
Method: as §1, §2, §3

| peptide uptake (cells with peptide) (HuH-7; HuH-7, no carrier) [%] | peptide uptake (cells with peptide) (HuH-7; HuH-7, with Chariot) [%] | peptide uptake (cells with peptide) (AML; no carrier) [%] | peptide uptake (cells with peptide) (AML; with Chariot) [%] | peptide uptake (cells with peptide) (HL60; HL60, no carrier) [%] | peptide uptake (cells with peptide) (HL60; HL60, with Chariot) [%] | peptide uptake (cells with peptide) (SNU387; SNU387, no carrier) [%] | peptide uptake (cells with peptide) (SNU387; SNU387, with Chariot) [%] | Substance | SALL4 RNA expression relative to scrambled control (SALL4) [%] |
| --- | --- | --- | --- | --- | --- | --- | --- | --- | --- |
|  |  |  |  |  |  |  |  | GATGCCTTGAAACAAGCCAAGCTACCTCA (chemistry not given here) [compound 7412, SALL4 shRNA used in primary AML cells] | 35 |
| 0 | 60 | 0 | 50 | ~50 | 70 | 0 | 40 | H-MSRRKQAKPQHI-OH [wt peptide, MSRRKQAKPQHI] |  |
